Results reported in US11066414B2, “Cot modulators and methods of use thereof” (Gilead Sciences, Inc., priority 2015, dated 2021).
pEC50, pIC50: −log10 of the molar value. Where two headings read alike, the source gives them in different places.

Legend:
[1] = test system: TNFα; experiment: Cot Monocyte TNFα Cell Based Assay
[2] = target: Human Cot (Homo sapiens (Human), UniProt P41279); experiment: High Throughput Cot Biochemical Assay; conditions: Cot HTRF (TR-FRET) biochemical assay
[3] = Homo sapiens, Monocyte, read-out: EC50 TNF, LPS-stimulated human monocytes, TNFα
[4] = read-out: EC50 TNF, LPS-stimulated human monocytes, TNFα

Sequence of Human Cot (P41279 30-397): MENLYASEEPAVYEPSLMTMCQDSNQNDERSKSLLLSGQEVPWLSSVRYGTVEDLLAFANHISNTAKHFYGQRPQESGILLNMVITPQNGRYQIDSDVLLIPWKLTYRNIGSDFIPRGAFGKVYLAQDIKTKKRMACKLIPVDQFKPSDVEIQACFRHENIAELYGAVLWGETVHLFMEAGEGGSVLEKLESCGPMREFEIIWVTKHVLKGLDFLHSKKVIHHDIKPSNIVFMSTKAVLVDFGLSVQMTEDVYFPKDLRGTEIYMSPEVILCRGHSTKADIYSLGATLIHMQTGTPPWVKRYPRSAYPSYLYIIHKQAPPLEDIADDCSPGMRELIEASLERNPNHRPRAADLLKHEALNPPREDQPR

SMILES | pEC50 [1, 3] | pIC50 ([2]; IC50 HTRF) | pEC50 [1, 4] | pIC50 ([2]; read-out: IC50 HTRF)
CC(C)(C)CNc1c(C#N)cnc2c(Cl)cc(N[C@H](c3cn(C4(C(N)=O)CC4)nn3)c3cccc4ncccc34)cc12 [Example 565, (S)-1-(4-(((8-chloro-3-cyano-4-(neopentyl-amino)quinolin-6-yl)amino)(quinolin-5-yl)methyl)-1H-1,2,3-triazol-1-yl)cyclo-propane-1-carboxamide] | 6.51 | 8.70 |  | 
CC(C)(C)CNc1c(C#N)cnc2c(Cl)cc(N[C@H](c3cn(C4(C(N)=O)CCC4)nn3)c3cccc4ncccc34)cc12 [Example 566, (S)-1-(4-(((8-chloro-3-cyano-4-(neopentyl-amino)quinolin-6-yl)amino)(quinolin-5-yl)methyl)-1H-1,2,3-triazol-1-yl)cyclobutane-1-carboxamide] | 6.72 | 8.70 |  | 
CC(C)(C)CNc1c(C#N)cnc2c(Cl)cc(N[C@H](c3cn(C4(C)CC4)nn3)c3cccc4ncccc34)cc12 [Example 568, (S)-8-chloro-6-(((1-(1-methylcyclopropyl)-1H-1,2,3-triazol-4-yl)(quinolin-5-yl)methyl)amino)-4-(neopentylamino)-quinoline-3-carbonitrile] | 6.77 | 8.30 |  | 
CC(C)(C)CNc1c(C#N)cnc2c(C#N)cc(N[C@H](c3cn(C4(CF)CC4)nn3)c3cccc4cnccc34)cc12 [Example 569] |  |  | 6.77 | 8.15
Cn1cc2cccc([C@H](Nc3cc(Cl)c4ncc(C#N)c(NCC(C)(C)C)c4c3)c3cn(C4(C(F)(F)F)CC4)nn3)c2n1 [Example 570, (S)-8-chloro-6-(((2-methyl-2H-indazol-7-yl)(1-(1-(trifluoromethyl)cyclopropyl)-1H-1,2,3-triazol-4-yl)methyl)amino)-4-(neopentylamino)quinoline-3-carbonitrile] | 6.00 | 6.74 |  | 
Cn1cc2cccc([C@H](Nc3cc(C#N)c4ncc(C#N)c(NCC(C)(C)C)c4c3)c3cn(C4(C(F)(F)F)CC4)nn3)c2n1 [Example 573, (S)-6-(((2-methyl-2H-indazol-7-yl)(1-(1-(trifluoromethyl)cyclopropyl)-1H-1,2,3-triazol-4-yl)methyl)amino)-4-(neopentylamino)quinoline-3,8-dicarbonitrile] | 6.12 | 7.18 |  | 
CC(C)(C)CNc1c(C#N)cnc2c(C#N)cc(N[C@H](c3cn(C4(C(N)=O)CC4)nn3)c3cccc4ncccc34)cc12 [Example 575, (S)-1-(4-(((3,8-dicyano-4-(neopentylamino)-quinolin-6-yl)amino)(quinolin-5-yl)methyl)-1H-1,2,3-triazol-1-yl)cyclopropane-1-carboxamide] | 6.01 | 9.00 |  | 
CC(C)(C)CNc1c(C#N)cnc2c(C#N)cc(N[C@H](c3cn(C4(C(N)=O)CCC4)nn3)c3cccc4ncccc34)cc12 [Example 576, (S)-1-(4-(((3,8-dicyano-4-(neopentyl-amino)quinolin-6-yl)amino)(quinolin-5-yl)methyl)-1H-1,2,3-triazol-1-yl)cyclobutane-1-carboxamide] | 6.36 | 9.00 |  | 
Cc1nc(F)ccc1[C@H](Nc1cc(Cl)c2ncc(C#N)c(NCC(C)(C)C)c2c1)c1cn([C@@H]2C[C@@H]2F)nn1 [Example 579, 8-chloro-6-(((S)-(6-fluoro-2-methylpyridin-3-yl)(1-((lR,2S)-2-fluorocyclopropyl)-1H-1,2,3-triazol-4-yl)methyl)amino)-4-(neopentylamino)quinoline-3-carbonitrile] |  |  | 7.62 | 8.70
Cc1nc(F)ccc1[C@H](Nc1cc(C#N)c2ncc(C#N)c(N[C@H](C)C(C)(C)C)c2c1)c1cn(C2(C(F)(F)F)CC2)nn1 [Example 583, 4-(((R)-3,3-dimethylbutan-2-yl)amino)-6-(((S)-(6-fluoro-2-methylpyridin-3-yl)(1-(1-(trifluoromethyl)cyclopropyl)-1H-1,2,3-triazol-4-yl)methyl)amino)quinoline-3,8-dicarbonitrile] | 6.92 | 8.40 |  | 
CC(C)(C)CNc1c(C#N)cnc2c(C#N)cc(N[C@H](c3cn(C4(C(N)=O)CC4)nn3)c3cccc4cnccc34)cc12 [Example 586, (S)-1-(4-(((3,8-dicyano-4-(neopentylamino)-quinolin-6-yl)atnino)(isoquinolin-5-yl)methyl)-1H-1,2,3-triazol-yl)cyclopropane-1-carboxamide] |  |  | 6.00 | 8.70
CC(C)(C)CNc1c(C#N)cnc2c(C#N)cc(N[C@H](c3cn(C4(C(N)=O)CCC4)nn3)c3cccc4cnccc34)cc12 [Example 587, (S)-1-(4-(((3,8-dicyano-4-(neopentylamino)-quinolin-6-yl)amino)(isoquinolin-5-yl)methyl)-1H-1,2,3-triazol-1-yl)cyclobutane-1-carboxamide] | 6.31 | 9.00 |  | 
Cc1nc(F)ccc1[C@H](Nc1cc(Cl)c2ncc(C#N)c(NC3CCCCC3)c2c1)c1cn(C2(C(F)(F)F)CC2)nn1 [Example 588, (S)-8-chloro-4-(cyclohexylamino)-6-(((6-fluoro-2-methylpyridin-3-yl)(1-(1-(trifluoromethyl)cyclopropyl)-1H-1,2,3-triazol-4-yl)methyl)amino)quinoline-3-carbonitrile] | 6.20 | 7.26 |  | 
CCc1nc(F)ccc1[C@H](Nc1cc(Cl)c2ncc(C#N)c(NCC(C)(C)C)c2c1)c1cn(C2(C(F)(F)F)CC2)nn1 [Example 593, (S)-8-chloro-6-(((2-ethyl-6-fluoropyridin-3-yl)(1-(1-(trifluoromethyl)cyclopropyl)-1H-1,2,3-triazol-4-yl)methyl)amino)-4-(neopentylamino)quinoline-3-carbonitrile] | 6.53 | 8.10 |  | 

Second part, the compound after the results:

pEC50 [1, 3] | pIC50 ([2]; IC50 HTRF) | pEC50 [1, 4] | pIC50 ([2]; read-out: IC50 HTRF) | SMILES
7.18 | 8.70 |  |  | CC(C)(C)CNc1c(C#N)cnc2c(Cl)cc(N[C@H](c3cn(C4(C#N)CC4)nn3)c3cccc4ncccc34)cc12 [Example 567, (S)-8-chloro-6-(((1-(1-cyanocyclopropyl)-1H-1,2,3-triazol-4-yl)(quinolin-5-yl)methyl)amino)-4-(neopentylamino)-quinoline-3-carbonitrile]
7.10 | 8.40 |  |  | CC(C)(C)CNc1c(C#N)cnc2c(C#N)cc(N[C@H](c3cn(C4(C(F)(F)F)CC4)nn3)c3cccn4nccc34)cc12 [Example 572, (S)-4-(neopentylamino)-6-((pyrazolo[1,5-a]pyridin-4-yl(1-(1-(trifluoromethyl)cyclo-propyl)-1H-1,2,3-triazol-4-yl)methyl)amino)quinoline-3,8-dicarbonitrile]
7.07 | 8.40 |  |  | [2H]c1c([C@@H](Nc2cc(C#N)c3ncc(C#N)c(NCC(C)(C)C)c3c2)c2ccc(F)nc2C)nnn1C1(C(F)(F)F)CC1 [Example 574, (S)-6-(((6-fluoro-2-methylpyridin-3-yl)(1-(1-(trifluoromethyl)cyclopropyl)-1H-1,2,3-triazol-4-yl-5-d)methyl)amino)-4-(neopentylamino)quinoline-3,8-dicarbonitrile]
7.31 | 9.00 |  |  | CC(C)(C)CNc1c(C#N)cnc2c(C#N)cc(N[C@H](c3cn(C4(C#N)CC4)nn3)c3cccc4ncccc34)cc12 [Example 577, (S)-6-(((1-(1-cyanocyclopropyl)-1H-1,2,3-triazol-4-yl)(quinolin-5-yl)methyl)amino)-4-(neopentylamino)-quinoline-3,8-dicarbonitrile]
7.49 | 8.70 |  |  | CC(C)(C)CNc1c(C#N)cnc2c(C#N)cc(N[C@H](c3cn(C4(C)CC4)nn3)c3cccc4ncccc34)cc12 [Example 578, (S)-6-(((1-(1-methylcyclopropyl)-1H-1,2,3-triazol-4-yl)(quinolin-5-yl)methyl)amino)-4-(neopentylamino)quinoline-3,8-dicarbonitrile]
7.08 | 8.70 |  |  | CC(C)(C)CNc1c(C#N)cnc2c(C#N)cc(N[C@H](c3cn(C4(C#N)CC4)nn3)c3cccc4cnccc34)cc12 [Example 580, (S)-6-(((1-(1-cyanocyclopropyl)-1H-1,2,3-triazol-4-yl)(isoquinolin-5-yl)methyl)amino)-4-(neopentylamino)-quinoline-3,8-dicarbonitrile]
7.49 | 8.70 |  |  | CC(C)(C)CNc1c(C#N)cnc2c(C#N)cc(N[C@H](c3cn(C4(C)CC4)nn3)c3cccc4cnccc34)cc12 [Example 581, (S)-6-((isoquinolin-5-yl(1-(1-methylcyclo-propyl)-1H-1,2,3-triazol-4-yl)methyl)amino)-4-(neopentylamino)quinoline-3,8-dicarbonitrile]
7.24 | 8.52 |  |  | Cc1nc(F)ccc1[C@H](Nc1cc(C#N)c2ncc(C#N)c(NCC(C)(C)C)c2c1)c1cn(C(C)(C)C(F)F)nn1 [Example 590, (S)-6-(((1-(1,1-difluoro-2-methylpropan-2-yl)-1H-1,2,3-triazol-4-yl)(6-fluoro-2-methylpyridin-3-yl)methyl)amino)-4-(neopentylamino)-quinoline-3,8-dicarbonitrile]
6.97 | 8.30 |  |  | Cc1nc(F)ccc1[C@H](Nc1cc(C#N)c2ncc(C#N)c(NCC(C)(C)C)c2c1)c1cn(C(C)(C)C(F)(F)F)nn1 [Example 591, (S)-6-(((6-fluoro-2-methylpyridin-3-yl)(1-(1,1,1-trifluoro-2-methylpropan-2-yl)-1H-1,2,3-triazol-4-yl)methyl)amino)-4-(neopentylamino)quinoline-3,8-dicarbonitrile]
7.11 | 8.30 |  |  | CCc1nc(F)ccc1[C@H](Nc1cc(Cl)c2ncc(C#N)c(NCC(C)(C)C)c2c1)c1cn(C2(C(F)F)CC2)nn1 [Example 592, (S)-8-chloro-6-(((1-(1-(difluoromethyl)cyclo-propyl)-1H-1,2,3-triazol-4-yl)(2-ethyl-6-fluoropyridin-3-yl)methyl)amino)-4-(neopentylamino)quinoline-3-carbonitrile]
